Laboratory results as given in ChEMBL document CHEMBL5500420, “Discovery of BI-9508, a Brain-Penetrant GPR88-Receptor-Agonist Tool Compound for In Vivo Mouse Studies” (J Med Chem, 2024).
≈ marks a conversion by molar mass, not a printed value.

Columns and labels:
P-gp = experiment: Apparent permeability in P-gp overexpressing MDCK-MDR1 cells at 1 uM incubated upto 2 hrs; format: ADME, cell-based, Canis lupus familiaris; settings: dog
[1] = Solubility of compound at pH 7 by high-throughput analysis; format: physicochemical; settings: buffer
[2] = Protein binding in mouse plasma at 1 uM incubated for 2 hrs by equilibrium dialysis based HPLC-MS/MS analysis; format: ADME, cell-free; settings: read-out: PPB (converted)
[3] = biological target: T1, G protein-coupled receptor 88 (Mus musculus, UniProt Q9EPB7); experiment: Agonist activity at mouse GPR88 transfected in HEK293 cells incubated for 10 mins by Gi1 BRET assay; format: functional, cell-based
[4] = biological target: T1, G protein-coupled receptor 88; experiment: Agonist activity at GPR88 in wildtype mouse striatal membrane assessed as stimulation of [35S]-GTPgammaS binding incubated for 1 hrs in presence of GDP by liquid scintillation counter
[5] = biological target: G protein-coupled receptor 88 (Homo sapiens, UniProt Q9GZN0); experiment: Agonist activity at human GPR88 transfected in HEK293 cells incubated for 10 mins by Gi1 BRET assay
G protein-coupled receptor 88 (Homo sapiens, UniProt Q9GZN0), sequence (Q9GZN0 whole entry): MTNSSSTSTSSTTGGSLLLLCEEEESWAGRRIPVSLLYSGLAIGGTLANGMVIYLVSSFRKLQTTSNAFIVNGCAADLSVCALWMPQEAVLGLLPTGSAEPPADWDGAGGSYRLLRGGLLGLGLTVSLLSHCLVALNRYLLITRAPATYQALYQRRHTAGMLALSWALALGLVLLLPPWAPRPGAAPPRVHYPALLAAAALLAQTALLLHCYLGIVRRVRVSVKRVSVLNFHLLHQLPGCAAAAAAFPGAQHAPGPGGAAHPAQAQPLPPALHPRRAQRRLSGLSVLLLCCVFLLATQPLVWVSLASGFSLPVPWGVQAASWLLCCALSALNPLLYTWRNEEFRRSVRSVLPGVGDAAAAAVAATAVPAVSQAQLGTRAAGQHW

T1 sequence (Q9EPB7 whole entry): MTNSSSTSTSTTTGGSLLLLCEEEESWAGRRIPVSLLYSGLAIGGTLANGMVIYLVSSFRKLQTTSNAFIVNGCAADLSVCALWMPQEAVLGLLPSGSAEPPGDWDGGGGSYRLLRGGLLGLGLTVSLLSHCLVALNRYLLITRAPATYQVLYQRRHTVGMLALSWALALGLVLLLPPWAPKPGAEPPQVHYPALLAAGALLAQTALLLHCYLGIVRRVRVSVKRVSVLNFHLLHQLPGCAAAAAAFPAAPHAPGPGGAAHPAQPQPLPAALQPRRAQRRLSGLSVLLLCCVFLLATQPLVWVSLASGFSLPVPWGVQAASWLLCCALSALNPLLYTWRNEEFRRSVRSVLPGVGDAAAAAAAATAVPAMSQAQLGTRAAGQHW

With `Cc1nnc2n1-c1sc(CCC(=O)N3CCOCC3)cc1C(c1ccccc1Cl)=NC2` [APAFANT] the Papp at 2 h, 1 µM (P-gp) was 3 ×10⁻⁶ cm/s.
Work on `CC(C)Oc1ccc(-c2ccc(N(CCOC(F)F)C(=O)[C@@H]3C[C@H]3c3ccncn3)c3ncnn23)cc1` yielded a solubility [1] of 11 µg/mL (≈ 21.6 µM) and a fraction unbound at 2 h, 1 µM [2] of 0.062.
With `COc1cc(-c2ccc(OC(C)C)cc2)ccc1N(C[C@@H](N)[C@@H](C)OC)C(=O)[C@@H]1C[C@H]1c1ccncn1` the EC50 [3] was 226 nM, the EC50 [4] was 6100 nM and the EC50 [5] was 168 nM.
In the case of `COc1cc(-c2ccc(O[C@@H](C)C(F)(F)F)nc2)ccc1N(CCOC(F)F)C(=O)[C@@H]1C[C@H]1c1ccncn1`, the fraction unbound at 2 h, 1 µM [2] is reported as 0.004.
`CO[C@H](C)[C@H](N)CN(C(=O)[C@@H]1C[C@H]1c1ccncn1)c1ccc(-c2ccc(OC(C)C)nc2)cc1` gave a fraction unbound at 2 h, 1 µM [2] of 0.052.
With `CO[C@H](C)[C@H](N)CN(C(=O)[C@@H]1C[C@H]1c1ccncn1)c1ccc(-c2ccc(OC(C)C)cc2)cc1` the EC50 [5] was over 99000 nM.
In the case of `CC(C)Oc1ccc(-c2ccc(N(CCOC(F)F)C(=O)[C@@H]3C[C@H]3c3ccncn3)c3c2cnn3C)cc1`, the EC50 [3] is reported as 94 nM.
